Results on 4 substances are retold here after US8209131B2, “Therapeutic heparins and their binding to interleukins 4 and 5 and PECAM-1” (Curtin University of Technology, priority 2004, dated 2012).

Where two headings read alike, the source gives them in different places.

In one assay the test system is TF1.8 cells. Nature of the assay: TF1.8 bioassay of IL-4 mutants (support of proliferation). In kind it is cell-based, human. The note with it: IL-4 wt and mutants, TF1.8 cells. As for the experimental part: TF-1.8 cells have been transfected with the firefly luciferase gene contained in the expression vector, pPGK-puromycin-luciferase (Coombe et al., 1998, Supra). The positive transfectants are cloned to produce a line with good luciferase expression. The proliferation assays are carried out in 96-well microplates suitable for such assays Falcon). The wells are flat bottomed, with white sides and a clear bottom. Cells are washed to remove any cytokine in the growth medium and then resuspended in RPMI/5% w/v FCS. The cells are counted with a Coulter Multisizer (Coulter Electronics, England) and routinely 2.5×10^4 cells are added to microplate wells that contain either no IL-4 (negative control) or various dilutions of IL-4. When the effect of HLGAGs, chondroitin sulfate C, or the heparin fractions of a particular length, or heparin fragments of a particular length and structure is to be measured, the wells also contain various concentrations of these molecules.
The cells proliferate for 48 hours at 37° C. in a humidified atmosphere, after which the luciferase activity is measured by the addition of 50 μl of luciferase substrate buffer (50 mm Tris-HCl, pH 7.8, 15 mM MgSO4, 33.3 mM DTT, 0.1 mM EDTA, 0.5 mM Na-luciferin, 0.5 mM ATP, 0.25 mM lithium Co A and 0.5% v/v Triton X-100). […] Light emissions are detected on a Victor 1420 Multilabel counter (Wallac, Turku, Finland). […]

The nature of assay [1]: BIAcore binding of proteins to heparin immobilised on a biosensor chip. Conditions: for binding to immobilized heparin: recombinant proteins, FIG. 2. The source says: This technology uses the optical phenomenon of surface plasmon resonance to monitor physical interactions between molecules. Passing the protein solution over a sensor surface to which the ligand is coupled monitors the real-time binding of proteins to an immobilized ligand. Detection is achieved by measuring refractive index changes very close to the sensor surface. When the refractive index is altered, the angle at which plasmon resonance occurs changes and this change directly correlates with the amount of protein interacting with the surface. A BIAcore 2000 is conveniently used. It is very sensitive and its microfluidics ensures that only small amounts of material are required.
The HLGAGs are immobilized on the biosensor chip. Intact HLGAGs are biotinylated via amino groups, or reducing termini modified with ammonia by reductive amination, using sulfo-NHS-biotin. Biotinylated HLGAGs are immobilized on streptavidin-coupled sensor chips. Solutions containing proteins of interest are injected over the sensor chip surface, and the binding is measured in real time (Fernig, In: Proteoglycan protocols, Ed. R.V. Iozzo, Humana Press, Totowa, N.J., USA, 2001). […] In all cases binding is specific, as there is little or no interaction with sensor chips lacking heparin with any of the targeted proteins, and binding is inhibited by exogenous heparin. Initial analyzes indicate that the binding of rhIL-5 to heparin has affinity constants of the order from 50-5×10^−9. Because unsubstituted amines are variably present in heparan sulfates from different tissues, an alternative method of biotin labeling is recommended for the heparan sulfate chip. In this case, heparan sulfate is labeled via oxidized cis-diol residues using biotinyl-LC-hydrazine. […]
Binding experiments with these proteins has indicated to which PECAM-1 domains heparin binds. Two binding assays were used: the assay where PECAM-1 is reacted with a BIAcore biosensor chip to which heparin has been immobilised and the second assay is the binding of PECAM-1 to heparan sulfate on the cell surface.
Site directed mutagenesis was performed on IL-4. Basic residues within the proposed heparin binding site were changed to alanine and the proteins expressed using the baculovirus expression system. The one exception was R88 which was changed to valine. Insect cell expressed proteins were purified on an anti-IL-4 affinity column and checked for purity by SDS-PAGE and silver staining. Mutant IL-4 proteins were examined for their ability to bind heparin immobilised on a biosensor chip and binding assessed using a BIAcore 2000.
In general terms: Surface plasmon resonance follows binding to a sensor surface in real time, without labels.

As a reminder, the Kd is the constant that tells how readily two partners part at equilibrium. As for WT: recombinant human wild-type IL-4, the “Conc needed for 50% growth, average” value in the assay with TF1.8 cells worked out at 0.99 ng/mL. The dissociation constant (Kd) in assay [1] (FIG. 24, several IL-4 concentrations, read-out: estimated KD of wild-type IL-4 binding to heparin) is 0.005 to 0.01 µM; in assay [1] (IL-4 WT and mutants binding to heparin, read-out: KD) it was 0.0527 µM. The substance further returned a ka in assay [1] (IL-4 WT and mutants binding to heparin, in M-1s-1 (unit assumed)) of 5.68E+04. Further, the kd in assay [1] (IL-4 WT and mutants binding to heparin, in s-1 (unit assumed)) amounted to 2.88E−03. The “binding to immobilized heparin” value in assay [1] is listed as “readily bind to heparin”.

For the substance “rhIL-5: baculovirus expressed human IL-5”, the “binding to immobilized heparin” value in assay [1] is “readily bind to heparin”.

On to CypA: E. coli expressed Cyclophilin A, for which the “binding to immobilized heparin” value in assay [1] is given as “readily bind to heparin”.

With “flag-PECAM-1: extracellular domain of PECAM-1 fused to the flag affinity tag, Cos-7 expressed”, in assay [1], the “binding of PECAM-1 constructs to immobilised heparin” value was “can bind to the heparin chip” and the “binding to immobilized heparin” value is “readily bind to heparin”.
